Test system: platelets
Procedure: Briefly, whole citrated blood is diluted 1:2 with sterile saline and placed in a warm chamber with a mini stir bar. An electronic probe, measuring electrical resistance, is inserted in the sample. The aggregometer is calibrated and the baseline is observed to detect any spontaneous aggregation. The test sample is added and allowed to run for at least 6 minutes. If the sample is an agonist the platelets will start to aggregate and stick to the electronic probe causing resistance across the electrodes to increase. This resistance, in ohms, is measured 6 minutes post addition of sample. The test samples are run at 25, 100, 200, 400 and 800 uM and compared to 100 uM L-ET-18-OCH3.
Collection of Blood Sample for in vitro Platelet Aggregation Testing: Venous blood is collected in 4.5 mL. Vacutainer tubes containing 0.129 M sodium citrate using a 21G needle or larger. Blood is immediately mixed by gentle inversion 15-20 times and kept at room temperature. Dilution ratio is 1 to 9 (3.8% citrate solution:blood). One (2.0 mL) Vacutainer tube containing EDTA is also collected for platelet counts. Complete blood counts (CBC) are measured on the CDC Technologies Hemavet 1500 to ensure that the test subject's platelets are within normal range. Any vials of hemolytic blood or blood containing any clots should be discarded. Platelet aggregation testing must be completed within 3 hours of blood collection. After this time the ability of platelets to aggregate decreases.
Cloudy solutions were warmed to ˜50° C. to dissolve and particles. Dilutions were prepared in PBS or saline at 40× concentration. (25 uL test sample are added to 1000 uL diluted blood (1:40)).

SMILES | Platelet aggregation response (in words) | Relative Platelet Aggregation (Ohms) 25 μM [Ohms] | Relative Platelet Aggregation (Ohms) 100 μM [Ohms] | Relative Platelet Aggregation (Ohms) 200 μM [Ohms]
CCCCCCCCCCCCCCCCCCOCC(COP(=O)([O-])OCC[N+](C)(C)C)OC [L-ET18OCH3, 1-O-octadecyl-2-O-methyl-glycerophosphocholine] | elicits a platelet aggregation response | 13 | 14 | 12
CCCCCCCCCCCCCCCCCCOCC(COP(=O)([O-])OCC[N+](C)(C)C)OC [D-ET18OCH3, 1-O-octadecyl-2-O-methyl-glycerophosphocholine] |  | 0 | 0 | 0
